{
  "source": "patent US9358276B2",
  "about": "“Methods of diagnosing and treating small intestinal bacterial overgrowth (SIBO) and SIBO-related conditions” (Cedars-Sinai Medical Center, priority 1999, dated 2016)",
  "key": {"intestinal transit": {"system": "intestinal transit", "experiment": "Intestinal transit in multi-fistulated dogs, cumulative % recovery of 99mTc-DTPA", "format": "in vivo, dog", "method_in_brief": "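Fistulated mongrel dogs (~25 kg) had the ~150 cm segment between duodenal and mid-gut fistulas isolated by occluding catheters and perfused at 2 mL/min with buffer plus test agent (some given i.v.). About 20 μCi 99mTc-DTPA was given as a bolus at 60 min of a 90-min perfusion. Mid-gut output was collected every 5 min for 30 min, gamma-counted, and reported as cumulative % recovery.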"}, "SIBO [1]": {"system": "SIBO", "experiment": "Comparison of antibiotic regimes for eradicating SIBO, follow-up lactulose breath hydrogen test (LBHT)", "format": "in vivo, human", "description": "Subjects were tested after an overnight fast. […] Each breath sample was then analyzed for hydrogen content with a gas chromatograph (Quintron Model DP, Quintron Instrument Co., Division of E.F. Brewer Co, Menomonee Falls, Wis. 53051), standardized using a QuinGas standard as instructed by the manufacturer. Hydrogen peaks were plotted before and after an antimicrobial treatment regimen for comparison. The normal range for the second hydrogen peak was 0 to 20 ppm. Subjects referred to the Cedars-Sinai GI Motility Program for a lactulose breath hydrogen test (LBHT) to assess SIBO were entered into a database. Those that tested positive for SIBO were given antibiotic treatment by their referring physician and in some cases, returned for a follow-up LBHT to assess eradication of SIBO. During the follow-up LBHT, subjects were asked which antibiotic they were given to treat their SIBO. The eradication rate of each antibiotic was evaluated. Of the 771 subjects in the database, 561 (73%) tested positive for SIBO. […] (See Table 1 below). […] None of the commonly used antibiotics was universally successful in eradicating overgrowth."}, "SIBO [2]": {"system": "SIBO", "experiment": "Neomycin/antibiotic treatment of subjects with fibromyalgia and SIBO", "format": "in vivo, human", "text": "Of these 37, 28 tested positive for SIBO.\nThese ten subjects reported a 63±19% overall improvement in their symptoms by VAS scoring. FIG. 3 compares the VAS scores for various symptoms reported by the subjects with a suspected diagnosis of fibromyalgia before and after neomycin treatment. Symptoms included bloating, gas, diarrhea, joint pain and fatigue to treatment. Subjects were asked to identify the symptom most improved. Five subjects reported that pain was the most improved; three subjects reported that the level of fatigue was most improved, and two others reported that their abdominal complaints improved the most. There was a negative correlation between the degree of improvement in the VAS scoring and the amount of residual hydrogen peak seen in LBHT. (Pearson=−0.689, p=0.02; FIG. 4).\nSubsequently, forty-six human subjects with FM (ACR criteria) entered a double blind randomized placebo controlled trial. Each subject underwent LBHT, a tender point examination and completed a questionnaire at the initial (baseline) and at every subsequent visit. Subjects were randomized to receive neomycin (500 mg twice daily in liquid form) or a matched placebo, for 10 days. After completion of this treatment, subjects with persistent SIBO received antibiotics (open label) until at least partially eradication was confirmed by LBHT. […] Six out of 20 patients (30%) in the neomycin group achieved complete […] eradication in the blinded arm. […] (Initial data in Table 1a)."}, "SIBO [3]": {"system": "SIBO", "experiment": "Neomycin treatment of chronic fatigue syndrome subjects with SIBO", "format": "in vivo, human", "description": "Thirty of 202 subjects in the database ([…]) had received a diagnosis of chronic fatigue syndrome. Of these 30 subjects, 21 (70%) had SIBO as indicated by LBHT, but four out of the nine without SIBO had recently taken antibiotics. Therefore, the prevalence of SIBO was 21 out of 26 (81%) subjects with a diagnosis of CFS. After treatment with neomycin (500 mg twice daily, 10-day course), nine of the 21 subjects diagnosed with CFS, returned for follow-up LBHT and questionnaire. […] (Table 2)."}, "SIBO [4]": {"system": "SIBO", "experiment": "Antibiotic treatment of Crohn's disease subjects with SIBO", "format": "in vivo, human", "description": "To correct for selection bias, a pilot study was conducted to determine the incidence of SIBO in subjects who had received a suspected diagnosis of Crohn's disease at Cedars-Sinai Medical Center=s IBD Center within the preceding three months."}, "[5]": {"details": "Crohn's subjects, pooled over the named antibiotics"}},
  "note": "Where “and” joins values, the source holds several entries; their conditions need not be identical. Identical values can stand only once.",
  "data": [
    {"compound": "CCCCCCCC/C=C\\CCCCCCCC(=O)[O-].[Na+]", "note": "[oleate, sodium oleate]", "values": [
      {"measurement": "proximal intestinal transit, cumulative % marker recovered", "setting": "intestinal transit; 60 mM oleate distal gut, Saline (i.v.), Buffer Control 70.11 ± 6.51, five dogs", "result": "26.62 ± 5.36", "unit": "%"},
      {"measurement": "marker recovery", "setting": "intestinal transit; 60 mM oleate in proximal gut + normal saline (jejunal brake), n=3", "result": "41.6±4.6", "unit": "%"},
      {"measurement": "marker recovery", "setting": "intestinal transit; 60 mM oleate in proximal gut with 0 mg naloxone, n=7", "result": "30.0±3.6", "unit": "%"},
      {"measurement": "marker recovery", "setting": "intestinal transit; 60 mM oleate into distal gut, Buffer Control 79.7±5.8%, n=2 dogs", "result": "25.8±5.2", "unit": "%"},
      {"measurement": "marker recovery", "setting": "intestinal transit; 60 mM oleate to distal gut (ileal brake), Buffer Control 81.2%", "result": 24.1, "unit": "%"},
      {"measurement": "marker recovery", "setting": "intestinal transit; ileal brake (oleate in distal gut, buffer in proximal gut), control 76.3±3.1%, four dogs", "result": "22.9±3.8", "unit": "%"},
      {"measurement": "marker recovery", "setting": "intestinal transit; ileal brake, 60 mM oleate into distal gut, n=2", "result": "20±1.8", "unit": "%"},
      {"measurement": "marker recovery", "setting": "intestinal transit; ileal brake, 60 mM oleate to distal gut, no naloxone, n=11", "result": "34.6±4.8", "unit": "%"}
    ]},
    {"compound": "neomycin", "values": [
      {"measurement": "success in eradicating SIBO, comparison of antibiotics", "setting": "SIBO [1]; 105 subjects with follow-up LBHT", "result": "most successful"},
      {"measurement": "% Patients with SIBO Eradicated", "setting": "SIBO [1]; follow-up LBHT", "result": 55, "unit": "%"},
      {"measurement": "patients achieving complete eradication of SIBO in the blinded arm", "setting": "SIBO [2]; six out of 20, 500 mg twice daily liquid, 10 days", "result": 30, "unit": "%"},
      {"measurement": "eradication of SIBO (post-treatment LBHT)", "setting": "SIBO [2]; ten fibromyalgia subjects", "result": "at least partially eradicated"},
      {"measurement": "overall improvement in symptoms by VAS scoring", "setting": "SIBO [2]; ten fibromyalgia subjects, 500 mg twice daily, 10-day course", "result": "63±19", "unit": "%"},
      {"measurement": "eradication of SIBO (LBHT)", "setting": "SIBO [3]; all nine CFS subjects", "result": "at least partially eradication of SIBO"},
      {"measurement": "VAS score Fatigue, After Antibiotic", "setting": "SIBO [3]; nine CFS patients", "result": "3.5 ± 1.4"},
      {"measurement": "VAS score Bloating, After Antibiotic", "setting": "SIBO [3]; nine CFS patients, neomycin 500 mg twice daily, 10-day course", "result": "2.3 ± 1.7"},
      {"measurement": "improvement in symptoms, breath test negative after antibiotic", "setting": "SIBO [4]; [5]", "result": "69±27", "unit": "%"},
      {"measurement": "improvement in symptoms, subjects remaining positive on breath test after antibiotic", "setting": "SIBO [4]; [5]", "result": "20±0", "unit": "%"},
      {"measurement": "eradication of SIBO (LBHT)", "setting": "SIBO [4]; nine Crohn's patients", "result": "at least partially eradication of SIBO"},
      {"measurement": "overall improvement in symptoms by VAS", "setting": "SIBO [4]; nine Crohn's patients (n=8 reporting), 10-day course of 500 mg twice/daily", "result": "57±32", "unit": "%"},
      {"measurement": "eradication of SIBO (post-treatment LBHT)", "setting": "SIBO [4]; pilot study, both subjects", "result": "completely at least partially eradicated"},
      {"measurement": "overall improvement in symptoms", "setting": "SIBO [4]; pilot study, two subjects, respectively, 10-day course", "result": "60% and 80%"}
    ]}
  ]
}
